The record followed here is US11980620B2, “Compounds and methods for treatment of Diamond Blackfan anemia” (THE CHILDREN'S MEDICAL CENTER CORPORATION, priority 2017, dated 2024).

For assay [1], the system named is K562 erythroleukemia cells transduced with shRPS19. Briefly: Autophagy induction (p62, LC3-I, LC3-II protein levels) in K562 cells transduced with shRPS19. In kind it is cell-based, human. On the procedure: (FIG. 13A) Induction of autophagy by SMER28 (40 μM) monitored by protein levels of p62, LC3-I, and LC3-II after 24 hours. Cells were also treated with 5-FU (100 nM) to induce autophagy, or inhibitor of transcription actinomycin D (ActD; 100 nM). (FIG. 13B) Induction of autophagy by SMER28 (40 μM) monitored by protein levels of p62, LC3-I, and LC3-II after 24 hours treatment with or without lysosomal blockade with bafilomycin A (200 nM for 4 hours). Untreated samples are shown at higher exposure, to capture dynamic changes in the LC3-II levels. Rapamycin (200 nM) is a positive control. LC3-II levels relative to GAPDH are quantitated on the right. (FIG. 13C) Erythroid differentiation of CD34-5F cells transduced with shRNAs for luciferase (LUC) or ATG5±SMER28. Representative flow plots and quantitation showing the number of erythroid cells induced by SMER28 (10 μM) normalized to DMSO. 2 control luciferase shRNAs and 2 ATG5 shRNAs are included (knockdown efficiency in hematopoietic cells of 58% and 50%, respectively), each with 2 independent lines; p=0.005, 3 independent experiments. (FIG. 13D) Atg5 deficiency causes anemia in zebrafish. Wild-type zebrafish embryos were treated with 1.6 ng atg5 or missense morpholino, and hemoglobin staining was visualized with benzidine staining at 40 hpf with SMER28 (1 μM). Representative images (left), and quantitation (right) with embryos grouped by high, medium, and low levels of benzidine staining.
SMER28 was identified as an mTOR-independent inducer of autophagy, by synergizing with rapamycin to promote clearance of protein aggregates in models of neurodegenerative disease (Sarkar et al., 2007; Tian et al., 2011). Autophagy is a pro-survival pathway induced by a variety of stresses, such as nutrient limitation or protein aggregation. Autophagy is required for clearance of mitochondria during terminal erythroid maturation (Mortensen and Simon, 2010), but has not been linked with earlier stages of erythropoiesis. To determine if SMER28 modulates autophagy in erythroid cells, we interrogated the levels of p62 and LC3 in K562 erythroleukemia cells transduced with shRPS19. SMER28 reduced p62 and increased the levels of […] LC3-II isoform associated with autophagosomes (FIG. 13A). […] To measure autophagic flux, we monitored LC3-II levels after blocking lysosomal fusion with bafilomycin A. SMER28 increased LC3-II levels following lysosomal blockade, similarly to the mTOR inhibitor rapamycin (FIG. 13B).
Drug treatments. SMER28 was purchased from Tocris and diluted in 10 mM aliquots in DMSO. The final concentration for CD34-5F and CB CD34^+erythroid treatments was 0.2-10 μM as indicated in the text. The final concentration for K562 cell treatments was 20-40 μM. […]

For the next assay, the system named is CB CD34+ cells. In kind it is in vivo, NSG mice. On the procedure: (FIG. 10A) SMER28 rescues RBC output in rps29^+/− zebrafish embryos. The level of hemoglobin in the yolk sac was visualized 40hpf with benzidine staining. Images are representative of the proportion of embryos indicated (of total counted). (FIG. 10B) Quantitation of SMER28 rescue for a range of 0.1-1 μM, with embryos grouped by high, medium, and low levels of hemoglobin staining. (FIG. 10C) Peripheral blood (PB) RBC counts and hematocrit in mice with irradiation-induced anemia. Mice were treated with the PEG400-based vehicle containing DMSO (VEH) (n=11), 1 mg/kg Dex (sodium-phosphate) (n=13), or 10 mg/kg SMER28 (n=9) for 3 weeks, bled, and assessed. Data are combined from 3 independent experiments. (FIG. 10D) Erythroid cells as proportion of the human graft in mice transplanted with DBA CD34-5F progenitors, and treated as in (FIG. 1c). (FIG. 10E) Levels of human engraftment in NSG mouse bone marrow (BM) transplanted with CB CD34^+ cells. Mice were treated with DMSO plus vehicle (VEH) (n=10), 1 mg/kg Dex (sodium-phosphate) (n=6), or 2 mg/kg SMER28 (n=11) for 4 weeks. (FIG. 10F) The proportion of erythroid, myeloid, and lymphoid (B cells) lineages within the human graft in vehicle- and SMER28-treated mice transplanted with CB CD34^+ cells. Only the effect on the erythroid lineage was significant. Data in FIGS. 10E-10G are pooled from 2 independent experiments. For all panels, *p<0.05, * *p<0.01.
Drug treatments. SMER28 was purchased from Tocris and diluted in 10 mM aliquots in DMSO. The final concentration for CD34-5F and CB CD34^+erythroid treatments was 0.2-10 μM as indicated in the text. The final concentration for K562 cell treatments was 20-40 μM. Ferric citrate (1-50 μM) and deferoxamine (100-200 μM) (Sigma) were dissolved in PBS and added on days 0-4 of “expansion” culture, and washed off prior to erythroid stage I (days 4-9) differentiation. For in vivo experiments, SMER28 aliquots were diluted in vehicle solution: 30% PEG-400, 5% propylene glycol, and 0.5% Tween-80. Dosing for human xenograft experiments was 2 mg/kg; for mouse models 10-20 mg/kg. Dexamethasone was purchased as Dex-sodium phosphate (DexSP) water-soluble formulation (Santa Cruz), and diluted in PBS vehicle (1 mg/kg). NSG mice were sub-lethally irradiated at 275 rads, and administered 100 μl of drug or vehicle by oral gavage daily.

Regarding `C=CCNc1ncnc2ccc(Br)cc12` [SMER28, 6-Bromo-N-2-propenyl-4-quinazolinam], the “LC3-II levels following lysosomal blockade (autophagic flux)” value in assay [1] (SMER28 40 μM 24 hours, bafilomycin A 200 nM for 4 hours) is “increased”. Further, in assay [1] (SMER28 40 μM, 24 hours), the “levels of LC3-II isoform associated with autophagosomes” value is “increased” and the p62 protein level entry is on record as “reduced”. The “distribution of myeloid and lymphoid lineages in human graft” value with CB CD34+ cells (2 mg/kg SMER28 for 4 weeks) is recorded as “did not affect”. The “erythroid contribution to human graft (RBCs as proportion of human graft)” value with CB CD34+ cells (2 mg/kg SMER28 for 4 weeks, vehicle 5.5%, p=0.05) was 13.0%. Also, the “human chimerism in bone marrow” value in the assay with CB CD34+ cells (2 mg/kg for 4 weeks, ns vs vehicle) came out at 25.2%.
